Drawing on US9630963B2, “Quinolone derivatives as fibroblast growth factor inhibitors” (Principia Biopharma, Inc., priority 2013, dated 2017), this text covers IC50 for 14 molecules.

The target of one test is human recombinant FGFR3 (Homo sapiens, UniProt P22607). Description: FGFR family enzymatic activity assay (Caliper-based kinase assay), FGFR3. Particulars: FGFR3 0.9 nM, ATP 120 μM, peptide substrate 1 μM, room temperature 3 h. It is filed as biochemical. From the text: (§1) A Caliper-based kinase assay (Caliper Life Sciences, Hopkinton, Mass.) was used to measure inhibition of FGFR family (FGFR1, FGFR2, FGFR3, FGFR4) kinase activity of a compound of Formula (I′) or (I). […] This value is presented as the IC50.

The target in another test is human recombinant FGFR4 (Homo sapiens, UniProt P22455). Description: FGFR family enzymatic activity assay (Caliper-based kinase assay), FGFR4. The following applies: FGFR4 2 nM, ATP 250 μM, peptide substrate 1 μM, room temperature 3 h. It is filed as biochemical.
Description: as §1

In the next test the target is human recombinant FGFR1 (Homo sapiens, UniProt P11362). Description: FGFR family enzymatic activity assay (Caliper-based kinase assay), FGFR1. In kind it is biochemical. The following applies: FGFR1 0.5 nM, ATP 100 μM, peptide substrate 1 μM, room temperature 3 h.
Description: as §1

The next test concerns the target human recombinant FGFR2 (Homo sapiens, UniProt P21802). Description: FGFR family enzymatic activity assay (Caliper-based kinase assay), FGFR2. In kind it is biochemical. The following applies: FGFR2 0.1 nM, ATP 75 μM, peptide substrate 1 μM, room temperature 3 h.
Description: as §1

A further test concerns SNU-16 cells. Description: Inhibition of FGFR2-dependent cell growth (Cell-titer Glo). Particulars: Homo sapiens, SNU16 cells, 72 hrs incubation, cell viability by Cell-titer Glo. In kind it is cell-based. Here is the method:
The cell-based effects of FGFR inhibitors were determined by measuring inhibition of FGFR-dependent cell line growth. […] Percent inhibition of cell growth was calculated as a percentage of untreated cell viability. The percent inhibition was plotted as a function of log compound concentration. The IC50 was then calculated for each compound using Prism software from GraphPad.

Where a name gives a salt, the structure may show the parent alone.

human recombinant FGFR1, sequence (P11362 22-822): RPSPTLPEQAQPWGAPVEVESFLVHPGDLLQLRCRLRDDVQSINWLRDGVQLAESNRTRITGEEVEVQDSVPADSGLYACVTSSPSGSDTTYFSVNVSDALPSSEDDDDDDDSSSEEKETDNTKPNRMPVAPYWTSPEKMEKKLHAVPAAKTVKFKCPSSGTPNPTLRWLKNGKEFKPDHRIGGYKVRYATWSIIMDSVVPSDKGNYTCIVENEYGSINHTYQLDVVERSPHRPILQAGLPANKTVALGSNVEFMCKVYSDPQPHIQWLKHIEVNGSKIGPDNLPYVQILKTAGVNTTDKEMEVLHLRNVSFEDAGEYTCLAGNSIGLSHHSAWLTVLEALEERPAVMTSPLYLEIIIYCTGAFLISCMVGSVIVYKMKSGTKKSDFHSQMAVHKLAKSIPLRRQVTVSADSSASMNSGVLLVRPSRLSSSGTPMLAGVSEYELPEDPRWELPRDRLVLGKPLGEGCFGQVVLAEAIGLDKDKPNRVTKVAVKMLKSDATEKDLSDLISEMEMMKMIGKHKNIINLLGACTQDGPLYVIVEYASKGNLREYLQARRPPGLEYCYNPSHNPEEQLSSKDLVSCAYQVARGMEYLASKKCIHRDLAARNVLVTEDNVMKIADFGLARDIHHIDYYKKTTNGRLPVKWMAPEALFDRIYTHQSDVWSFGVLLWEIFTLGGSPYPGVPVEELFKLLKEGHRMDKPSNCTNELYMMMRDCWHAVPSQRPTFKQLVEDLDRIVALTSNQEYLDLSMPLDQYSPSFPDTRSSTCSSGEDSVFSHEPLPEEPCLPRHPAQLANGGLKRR
human recombinant FGFR4, sequence (P22455 22-802): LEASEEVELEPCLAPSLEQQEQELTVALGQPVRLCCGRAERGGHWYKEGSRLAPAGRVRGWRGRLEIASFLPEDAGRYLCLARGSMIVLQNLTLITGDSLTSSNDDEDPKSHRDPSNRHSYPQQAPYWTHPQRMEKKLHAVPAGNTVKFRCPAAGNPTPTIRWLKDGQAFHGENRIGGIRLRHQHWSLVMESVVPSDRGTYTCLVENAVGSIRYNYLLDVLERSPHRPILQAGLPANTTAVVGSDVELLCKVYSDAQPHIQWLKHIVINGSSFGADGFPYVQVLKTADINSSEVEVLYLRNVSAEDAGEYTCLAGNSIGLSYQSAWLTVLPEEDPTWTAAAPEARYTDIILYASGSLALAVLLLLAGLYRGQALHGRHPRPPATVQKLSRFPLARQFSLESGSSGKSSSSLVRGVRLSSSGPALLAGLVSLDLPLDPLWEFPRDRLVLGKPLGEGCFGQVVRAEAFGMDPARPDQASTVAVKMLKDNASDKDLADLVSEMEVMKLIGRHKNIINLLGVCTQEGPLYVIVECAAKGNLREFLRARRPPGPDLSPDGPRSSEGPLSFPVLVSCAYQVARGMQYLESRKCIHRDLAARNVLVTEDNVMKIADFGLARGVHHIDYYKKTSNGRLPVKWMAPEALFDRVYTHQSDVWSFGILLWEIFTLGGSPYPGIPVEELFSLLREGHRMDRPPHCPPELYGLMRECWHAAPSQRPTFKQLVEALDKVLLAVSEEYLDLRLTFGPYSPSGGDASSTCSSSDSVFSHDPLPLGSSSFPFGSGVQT
human recombinant FGFR2, sequence (P21802 22-821): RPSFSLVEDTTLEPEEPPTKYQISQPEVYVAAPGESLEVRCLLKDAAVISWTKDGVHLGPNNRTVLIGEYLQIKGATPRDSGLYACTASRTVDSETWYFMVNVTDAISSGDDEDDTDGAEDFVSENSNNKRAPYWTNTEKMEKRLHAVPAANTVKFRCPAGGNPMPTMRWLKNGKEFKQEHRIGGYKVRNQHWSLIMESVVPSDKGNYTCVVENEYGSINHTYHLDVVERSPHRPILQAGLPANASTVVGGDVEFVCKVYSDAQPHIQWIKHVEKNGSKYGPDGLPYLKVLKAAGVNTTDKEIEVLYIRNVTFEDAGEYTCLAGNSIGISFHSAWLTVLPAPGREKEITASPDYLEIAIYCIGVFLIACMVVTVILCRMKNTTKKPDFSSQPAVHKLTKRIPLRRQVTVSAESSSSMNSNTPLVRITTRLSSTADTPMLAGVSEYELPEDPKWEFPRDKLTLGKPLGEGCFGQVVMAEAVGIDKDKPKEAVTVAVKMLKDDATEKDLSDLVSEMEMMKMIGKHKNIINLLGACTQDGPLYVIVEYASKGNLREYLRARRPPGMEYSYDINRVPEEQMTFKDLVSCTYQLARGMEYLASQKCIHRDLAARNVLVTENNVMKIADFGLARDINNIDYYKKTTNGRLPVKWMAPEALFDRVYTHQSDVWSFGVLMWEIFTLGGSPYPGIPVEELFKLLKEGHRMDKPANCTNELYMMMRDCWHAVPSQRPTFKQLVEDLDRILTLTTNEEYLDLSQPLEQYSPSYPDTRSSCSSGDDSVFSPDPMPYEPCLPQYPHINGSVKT
human recombinant FGFR3, sequence (P22607 23-806): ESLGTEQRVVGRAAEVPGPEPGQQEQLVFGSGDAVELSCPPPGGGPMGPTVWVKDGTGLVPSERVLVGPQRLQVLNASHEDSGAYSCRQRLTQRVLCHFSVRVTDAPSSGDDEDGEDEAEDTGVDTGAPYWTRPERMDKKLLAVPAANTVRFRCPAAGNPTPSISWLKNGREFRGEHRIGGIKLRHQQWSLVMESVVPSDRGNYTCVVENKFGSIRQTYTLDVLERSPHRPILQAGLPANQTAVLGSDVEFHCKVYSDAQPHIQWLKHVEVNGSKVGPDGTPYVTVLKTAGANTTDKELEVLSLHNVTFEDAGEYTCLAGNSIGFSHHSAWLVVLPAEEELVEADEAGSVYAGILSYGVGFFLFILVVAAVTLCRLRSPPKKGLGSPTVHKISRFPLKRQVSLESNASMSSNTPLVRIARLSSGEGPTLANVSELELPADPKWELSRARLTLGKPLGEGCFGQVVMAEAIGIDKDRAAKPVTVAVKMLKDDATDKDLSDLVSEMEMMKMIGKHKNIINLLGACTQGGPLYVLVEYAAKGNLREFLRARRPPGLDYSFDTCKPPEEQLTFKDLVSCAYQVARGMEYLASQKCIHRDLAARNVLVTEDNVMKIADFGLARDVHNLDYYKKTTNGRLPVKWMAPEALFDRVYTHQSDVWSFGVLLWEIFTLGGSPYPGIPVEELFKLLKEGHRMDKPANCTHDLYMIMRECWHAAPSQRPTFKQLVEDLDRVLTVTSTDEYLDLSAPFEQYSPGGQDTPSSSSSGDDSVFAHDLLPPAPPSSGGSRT

Consider `C=CC(=O)N1CCCC(CCn2c(=O)c(-c3ccccc3Cl)cc3cnc(NCCCCN(CC)CC)nc32)C1` (stereo not drawn) [Example 2, 8-(2-(1-acryloylpiperidin-3-yl)ethyl)-6-(2-chlorophenyl)-2-(4-(diethylamino)-butylamino)pyrido[2,3-d]pyrimidin-7(8H)-one], for which the 50% inhibitory concentration (IC50) (usually the midpoint of a concentration-inhibition curve) at human recombinant FGFR3 was 1040 nM; on human recombinant FGFR4, > 5000 nM; at human recombinant FGFR1, 840 nM; on human recombinant FGFR2, 701 nM.

As to `C=CC(=O)Nc1ccc(CCn2c(=O)c(-c3c(Cl)c(OC)cc(OC)c3Cl)cc3cnc(NC)nc32)cc1` [Example 4, N-(4-(2-(6-(2,6-dichloro-3,5-dimethoxyphenyl)-2-(methylamino)-7-oxopyrido[2,3-d]pyrimidin-8(7H)-yl)ethyl)phenyl)acrylamide], the half-maximal inhibitory concentration (IC50) worked out at 3.1 nM at human recombinant FGFR3; 10.4 nM on human recombinant FGFR4; 1.3 nM at human recombinant FGFR1; 1.6 nM on human recombinant FGFR2; 1.4 nM in the test with SNU-16 cells.

For `C=CC(=O)Nc1ccc(CCn2c(=O)c(-c3c(Cl)c(OC)cc(OC)c3Cl)cc3cnc(NCCCCN(CC)CC)nc32)cc1` [Example 5, N-(4-(2-(6-(2,6-dichloro-3,5-dimethoxyphenyl)-2-(4-(diethylamino)butylamino)-7-oxopyrido[2,3-d]pyrimidin-8(7H)-yl)ethyl)phenyl)acrylamide hydrochloride], the IC50 on human recombinant FGFR3 worked out at 5.5 nM; at human recombinant FGFR4 it was 32.4 nM; at human recombinant FGFR1, 1.1 nM; at human recombinant FGFR2, 1.5 nM; with SNU-16 cells, 5.6 nM.

As for `C=CC(=O)Nc1cccc(Cn2c(=O)c(-c3c(Cl)c(OC)cc(OC)c3Cl)cc3cnc(NCCCCN(CC)CC)nc32)c1` [Example 6, N-(3-[[6-(2,6-dichloro-3,5-dimethoxyphenyl)-2-[[4-(diethylamino)butyl]-amino]-7-oxo-7H,8H-pyrido[2,3-d]pyrimidin-8-yl]methyl]phenyl)acrylamide], the 50% inhibitory concentration (IC50) at human recombinant FGFR3 amounted to 3.1 nM; on human recombinant FGFR4, 33.2 nM; at human recombinant FGFR1, 1.3 nM; at human recombinant FGFR2 it was 1 nM.

For `C=CC(=O)Nc1ccc(CCn2c(=O)c(-c3c(Cl)c(OC)cc(OC)c3Cl)cc3cnc(NC)nc32)nc1` [Example 38, N-(6-(2-(6-(2,6-dichloro-3,5-dimethoxyphenyl)-2-(methylamino)-7-oxopyrido[2,3-d]pyrimidin-8(7H)-yl)ethyl)pyridin-3-yl)acrylamide], the IC50 on human recombinant FGFR3 came out at 3.3 nM; at human recombinant FGFR4 it was 6.3 nM; on human recombinant FGFR1, 1.2 nM; on human recombinant FGFR2 it was 2 nM; in the test on SNU-16 cells it was 2.5 nM.

With `C=CC(=O)Nc1ccc(CCn2c(=O)c(-c3cc(OC)cc(OC)c3Cl)cc3cnc(NCCN4CCOCC4)nc32)nc1` [Example 39, N-(6-(2-(6-(2-chloro-3,5-dimethoxyphenyl)-2-((2-morpholinoethyl)amino)-7-oxopyrido[2,3-d]pyrimidin-8(7H)-yl)ethyl)pyridin-3-yl)acrylamide], the half-inhibitory concentration (IC50) stood at 5.4 nM at human recombinant FGFR3; 42 nM at human recombinant FGFR4; 0.9 nM at human recombinant FGFR1; 5.5 nM on human recombinant FGFR2; 1.2 nM in the test on SNU-16 cells.

`C=CC(=O)Nc1ccc(CCn2c(=O)c(-c3cc(OC)cc(OC)c3F)cc3cnc(NCCN4CCOCC4)nc32)cc1` [Example 43, N-(4-(2-(6-(2-fluoro-3,5-dimethoxyphenyl)-2-((2-morpholinoethyl)amino)-7-oxopyrido[2,3-d]pyrimidin-8(7H)-yl)ethyl)phenyl)acrylamide]: the IC50 at human recombinant FGFR3 worked out at 9.6 nM; on human recombinant FGFR4, 71 nM; at human recombinant FGFR1 it was 2 nM; at human recombinant FGFR2, 2.6 nM; in the test on SNU-16 cells, 3.7 nM.

As to `C=CC(=O)Nc1ccc(CCn2c(=O)c(-c3c(Cl)c(OC)cc(OC)c3Cl)cc3cnc(NCCN4CCOCC4)nc32)cc1` [Example 44, N-(4-(2-(6-(2,6-dichloro-3,5-dimethoxyphenyl)-2-((2-morpholinoethyl)amino)-7-oxopyrido[2,3-d]pyrimidin-8(7H)-yl)ethyl)phenyl)acrylamide], the IC50 was determined as 4 nM on human recombinant FGFR3; 14 nM at human recombinant FGFR4; 1 nM on human recombinant FGFR1; 2.5 nM at human recombinant FGFR2; 3.1 nM in the test on SNU-16 cells.

In the case of `C=CC(=O)Nc1ccc(CCn2c(=O)c(-c3c(Cl)c(OC)cc(OC)c3Cl)cc3cnc(NCCN4CCOCC4)nc32)nc1` [Example 51, N-(6-(2-(6-(2,6-dichloro-3,5-dimethoxyphenyl)-2-(2-morpholinoethylamino)-7-oxopyrido[2,3-d]pyrimidin-8(7H)-yl)ethyl)pyridin-3-yl)acrylamide], the half-inhibitory concentration (IC50) at human recombinant FGFR3 was 5.4 nM; at human recombinant FGFR4 it was 12.8 nM; on human recombinant FGFR1, 1.8 nM; at human recombinant FGFR2, 4.2 nM; in the test on SNU-16 cells, 2.4 nM.

Take `C=CC(=O)Nc1ccc(CCn2c(=O)c(-c3cc(OC)cc(OC)c3Cl)cc3cnc(NC(C)(C)CO)nc32)cc1` [Example 61, N-(4-(2-(6-(2-chloro-3,5-dimethoxyphenyl)-2-((1-hydroxy-2-methylpropan-2-yl)-amino)-7-oxopyrido[2,3-d]pyrimidin-8(7H)-yl)ethyl)phenyl)acrylamide]: the IC50 at human recombinant FGFR3 stood at 9.2 nM; at human recombinant FGFR4, 64.4 nM; on human recombinant FGFR1, 1.5 nM; at human recombinant FGFR2 it was 3.4 nM; with SNU-16 cells it was 6.8 nM.

As to `C=CC(=O)Nc1ccc(CCn2c(=O)c(-c3c(Cl)c(OC)cc(OC)c3Cl)cc3cnc(NC4CCN(C)CC4)nc32)cc1` [Example 62, N-(4-(2-(6-(2,6-dichloro-3,5-dimethoxyphenyl)-2-((1-methylpiperidin-4-yl)amino)-7-oxopyrido[2,3-d]pyrimidin-8(7H)-yl)ethyl)phenyl)acrylamide], the IC50 on human recombinant FGFR3 is 9.9 nM; on human recombinant FGFR4, 54.1 nM; at human recombinant FGFR1, 0.7 nM; at human recombinant FGFR2, 2 nM; in the test on SNU-16 cells, 2.1 nM.

Consider `C=CC(=O)Nc1ccc(CCn2c(=O)c(-c3c(Cl)c(OC)cc(OC)c3Cl)cc3cnc(NCC(O)CO)nc32)cc1` (stereo not drawn) [Example 63, N-(4-(2-(6-(2,6-dichloro-3,5-dimethoxyphenyl)-2-((2,3-dihydroxypropyl)amino)-7-oxopyrido[2,3-d]pyrimidin-8(7H)-yl)ethyl)phenyl)acrylamide], for which the concentration for half-maximal inhibition (IC50) at human recombinant FGFR3 turned out to be 3.2 nM; on human recombinant FGFR4, 9.7 nM; at human recombinant FGFR1, 0.7 nM; on human recombinant FGFR2, 0.9 nM; with SNU-16 cells, 3.1 nM.

On to `C=CC(=O)Nc1ccc(CCn2c(=O)c(-c3c(Cl)c(OC)cc(OC)c3Cl)cc3cnc(NCC(C)(C)O)nc32)cc1` [Example 64, N-(4-(2-(6-(2,6-dichloro-3,5-dimethoxyphenyl)-2-((2-hydroxy-2-methylpropyl)-amino)-7-oxopyrido[2,3-d]pyrimidin-8(7H)-yl)ethyl)phenyl)acrylamide], for which the half-maximal inhibitory concentration (IC50) on human recombinant FGFR3 is 5.5 nM; at human recombinant FGFR4, 19.9 nM; on human recombinant FGFR1, 0.5 nM; on human recombinant FGFR2 it was 2.2 nM; in the test with SNU-16 cells, 3.2 nM.

For `C=CC(=O)Nc1ccc(CCn2c(=O)c(-c3cc(OC)cc(OC)c3Cl)cc3cnc(NC(CO)CO)nc32)cc1` [Example 72, N-(4-(2-(6-(2-chloro-3,5-dimethoxyphenyl)-2-((1,3-dihydroxypropan-2-yl)amino)-7-oxopyrido[2,3-d]pyrimidin-8(7H)-yl)ethyl)phenyl)acrylamide], the IC50 was 6.8 nM on human recombinant FGFR3, 43.3 nM at human recombinant FGFR4 and 1.5 nM on human recombinant FGFR2.
